Source: patent publication US11547706B2, “Methods and compositions for reducing tactile dysfunction and anxiety associated with autism spectrum disorder, Rett syndrome, and Fragile X syndrome” (President and Fellows of Harvard College, priority 2016, dated 2023)
Entries after “also recorded” stand apart in the source; their conditions may differ.

Key:
[1] = test system: Advillin^Cre; Mecp2^f/y mutant mice; assay: Response to air puff stimulus alone after drug injection; type: in vivo, mouse; details: Midazolam 2.5 mg/kg or isoguvacine 1 mg/kg injection
Method: (§1) FIG. 15A is a graph showing the startle response of Advillin^Cre; Mecp2^f/y mutant mice and control littermates following injection of: vehicle (saline), Bumetanide (0.2 mg/kg), Midazolam (2.5 mg/kg) or isoguvacine (1 mg/kg). […] FIG. 15B is a graph showing the response to tactile PPI of Advillin^Cre; Mecp2^f/y mutant mice and control littermates following injection of: vehicle (saline), Bumetanide (0.2 mg/kg), Midazolam (2.5 mg/kg) or isoguvacine (1 mg/kg). […] FIG. 15C is a graph showing the response to air puff alone of Advillin^Cre; Mecp2^f/y mutant mice and control littermates following injection of: vehicle (saline), Bumetanide (0.2 mg/kg), Midazolam (2.5 mg/kg) or isoguvacine (1 mg/kg).
The response of mice to tactile and acoustic startle stimuli, and the ability of a tactile or acoustic stimulus to inhibit startle to a loud acoustic stimulus was measured using a San Diego Instruments startle reflex system (SR-LAB™ Startle Response System). […] Air puffs were administered to the back of the mouse to assess hairy skin sensitivity. […] In addition, this prepulse intensity was chosen because it produced significant inhibition of startle reflex at multiple (ISIs). […]

[2] = test system: Advillin^Cre; Mecp2^f/y mutant mice and control littermates; assay: Magnitude of startle response to a 125 dB noise after drug injection; type: in vivo, mouse; details: Midazolam 2.5 mg/kg injection, compared to animals treated with vehicle
Method: as §1
(§2) The response of mice to tactile and acoustic startle stimuli, and the ability of a tactile or acoustic stimulus to inhibit startle to a loud acoustic stimulus was measured using a San Diego Instruments startle reflex system (SR-LAB™ Startle Response System). […] Air puffs were administered to the back of the mouse to assess hairy skin sensitivity. […]
(§3) For acoustic PPI, the prepulse was 20 ms in duration and presented 100 ms before the startle pulse (inter-stimulus interval, ISI). […] Whole body flinch, or startle reflex, was quantitated using an accelerometer sensor measuring the amplitude of movement of the animal, within the cylindrical holder.

[3] = test system: Advillin^Cre; Mecp2^f/y mutant mice; assay: Tactile PPI assay after drug injection; type: in vivo, mouse; details: Midazolam 2.5 mg/kg or isoguvacine 1 mg/kg injection
Method: as §1, §2, §3

control mice = assay: Tactile PPI with back hairy skin pretreated with lidocaine; type: in vivo, mouse
Method: FIG. 1A is an image showing a smooth textured object (left) and a rough textured object (right) used in the textured NORT. FIG. 1B is a schematic outlining the protocol for the three NORT assays. FIG. 1C is a graph showing the discrimination indices for textured NORT. A positive value indicates preference for the novel object, compared to the familiar object. *, p<0.05. FIG. 1D is a graph showing the discrimination indices for 5 minute control NORT. A positive value indicates preference for the novel object, compared to the familiar object. *, p<0.05. FIG. 1E is a graph showing the discrimination indices for 1 hour control NORT. A positive value indicates preference for the novel object, compared to the familiar object. *, p<0.05. FIG. 1F is a schematic showing the tactile PPI assay. […] Responses are expressed as percent of startle response to a 125 dB noise. *, p<0.01. […] Responses are expressed as percent of startle response to a 125 dB noise. *, p<0.05. […]
(§4) The response of mice to tactile and acoustic startle stimuli, and the ability of a tactile or acoustic stimulus to inhibit startle to a loud acoustic stimulus was measured using a San Diego Instruments startle reflex system (SR-LAB™ Startle Response System). […]

[4] = test system: large diameter DRG neurons cultured from Shank3B^+/- or Mecp2^STOP/y mice; assay: Whole cell patch clamp recordings of cultured large diameter DRG neurons from mutant mice; type: cell-based, mouse; details: 10 μM isoguvacine; for resting membrane potential / rheobase, excitability: neurons from Shank3B^+/- or Mecp2^STOP/y mice
Excerpt: Repeated measures two-way ANOVA with post-hoc Tukey's test: *, p<0.05. […] Repeated measures two-way ANOVA with post-hoc Tukey's test: *, p<0.05. […] Repeated measures two-way ANOVA with post-hoc Tukey's test: *, p<0.05. […] Repeated measures two-way ANOVA with post-hoc Tukey's test: *, p<0.05.
We next determined whether isoguvacine could improve electrophysiological deficits observed in large diameter peripheral somatosensory neurons cultured from Shank3 and Mecp2 mutant mice.

[5] = test system: mice including Advillin^Cre; Mecp2^floxed mutant mice; assay: Open field test after isoguvacine; type: in vivo, mouse; details: 1 mg/kg, i.p.
Method: (§5) Values are expressed as percent of control littermates' performance. Experiments were performed in mutant mice (Advillin^Cre; Mecp2^f/y, Shank3B^+/− or Fmr1^−/y) and control littermates, 30 minutes after an intraperitoneal (i.p.) of either saline (vehicle) or Isoguvacine (1 mg/kg). Two-way ANOVA, with post-hoc Holm-Sidak's test, *, p<0.05, when comparing mutants to control within same treatment; #, p<0.05, when comparing the same genotype across different treatments. FIG. 56B is a graph of response to a light air puff stimulus alone (0.9 PSI, 50 ms). Responses are expressed as a percent of startle response to a 125-B noise. Experiments were performed in mutant mice (Advillin^Cre; Mecp2^f/y, Shank3B^+/− or Fmr1^−/y) and control littermates, 30 minutes after an intraperitoneal (i.p.) of either saline (vehicle) or isoguvacine (1 mg/kg). Two-way ANOVA, with post-hoc Holm-Sidak's test, *, p<0.05, and t, p<0.10, when comparing mutants to control within same treatment; #, p<0.05, when comparing the same genotype across different treatments. FIG. 56C is a graph of magnitude of startle response to a 125-dB noise. […]
On the first day of behavioral testing, animals were subjected to the open field test. […] A portion of videos were blindly hand-scored to verify accuracy. Distance traveled and time spent away from walls (time in center) were analyzed per 10-minute video.

[6] = test system: Mecp2, Shank3 and Fmr1 mutant mice; assay: Tactile PPI assay in multiple ASD mouse models; type: in vivo; details: 1 mg/kg, i.p., acute, 30 minutes before test
Method: as §5, §4

[7] = test system: large diameter DRG neurons cultured from control mice; assay: Whole cell patch clamp recordings of cultured large diameter DRG neurons; type: cell-based, mouse; details: 10 μM isoguvacine, 5 minutes after application
Excerpt: Repeated measures one-way ANOVA, *, p<0.05. […] Student's paired t-test, p<0.05. […] Repeated measures one-way ANOVA, *, p<0.05. […] Student's paired t-test, p<0.05.
These exciting findings prompted us to ask whether peripherally restricted GABAA receptor agonists could also be used to ameliorate tactile hypersensitivity and other behavioral deficits in ASD models. We utilized a peripherally restricted GABAA receptor agonist, isoguvacine, to determine whether augmenting GABAA receptor signaling at DRG cell bodies could reduce excitability of primary somatosensory afferents.

Row | SMILES | response to an air puff stimulus alone [1] | startle amplitude [2] | responses in the tactile PPI assay [3] | tactile PPI (control mice) | rheobase compared with neurons cultured from control littermates ([4]; neurons from Shank3B^+/- and Mecp2^STOP/y mice) | resting membrane potential [4] | rheobase, excitability [4] | resting membrane potential ([4]; listed as Isoguvacine) | rheobase, excitability ([4]; listed as Isoguvacine) | time spent in the center of a chamber during the open field test [5] | tactile hypersensitivity, as measured by the tactile PPI assay [6] | minimal current required to produce an action potential (rheobase), excitability [7] | resting membrane potential [7]
1 | Cc1ncc2n1-c1ccc(Cl)cc1C(c1ccccc1F)=NC2 [Midazolam] | decreased response to an air puff stimulus alone | trend toward decreased startle amplitude | trend toward normalized responses | – | – | – | – | – | – | – | – | – | –
2 | CCN(CC)CC(=O)Nc1c(C)cccc1C [lidocaine] | – | – | – | abolished | – | – | – | – | – | – | – | – | –
3 | O=C(O)C1=CCNCC1 [isoguvacine] | decreased response to an air puff stimulus alone | – | trend toward normalized responses | – | rheobase was no longer different than neurons cultured from control littermates | significant decrease in resting membrane potential | increase in rheobase | reduces resting membrane potential | decreases excitability | enhanced the time spent in the center | significantly reduces tactile hypersensitivity | decreases excitability; also recorded: increase in the amount of minimal current required to produce an action potential | reduces resting membrane potential; also recorded: decrease in resting membrane potential
